According to ChEMBL document CHEMBL4507319 (2021):

How the values were obtained:
[1] = target: T1, Aurora kinase A (Homo sapiens) (UniProt O14965); experiment: Aurora-A(h) Eurofins kinase panel; conditions: Compound concentration 1.0 uM
T1 sequence (whole entry): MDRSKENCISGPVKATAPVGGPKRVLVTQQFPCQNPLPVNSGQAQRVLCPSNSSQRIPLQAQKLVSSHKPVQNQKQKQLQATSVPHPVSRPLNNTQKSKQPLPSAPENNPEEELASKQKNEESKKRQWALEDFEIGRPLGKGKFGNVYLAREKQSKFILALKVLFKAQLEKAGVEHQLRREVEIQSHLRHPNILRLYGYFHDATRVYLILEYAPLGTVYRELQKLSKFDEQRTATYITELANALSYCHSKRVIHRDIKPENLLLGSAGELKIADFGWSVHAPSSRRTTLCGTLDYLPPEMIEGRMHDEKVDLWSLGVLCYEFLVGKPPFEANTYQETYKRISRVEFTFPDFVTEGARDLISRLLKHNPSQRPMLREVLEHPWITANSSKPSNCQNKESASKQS

[2] = target: Serine/threonine-protein kinase PLK2 (Homo sapiens) (UniProt Q9NYY3); experiment: Snk(h) Eurofins kinase panel; conditions: Compound concentration 1.0 uM
[3] = target: T2, Serine/threonine-protein kinase TBK1 (Homo sapiens) (UniProt Q9UHD2); experiment: TBK1(h) Eurofins kinase panel; conditions: Compound concentration 1.0 uM
T2 sequence (whole entry): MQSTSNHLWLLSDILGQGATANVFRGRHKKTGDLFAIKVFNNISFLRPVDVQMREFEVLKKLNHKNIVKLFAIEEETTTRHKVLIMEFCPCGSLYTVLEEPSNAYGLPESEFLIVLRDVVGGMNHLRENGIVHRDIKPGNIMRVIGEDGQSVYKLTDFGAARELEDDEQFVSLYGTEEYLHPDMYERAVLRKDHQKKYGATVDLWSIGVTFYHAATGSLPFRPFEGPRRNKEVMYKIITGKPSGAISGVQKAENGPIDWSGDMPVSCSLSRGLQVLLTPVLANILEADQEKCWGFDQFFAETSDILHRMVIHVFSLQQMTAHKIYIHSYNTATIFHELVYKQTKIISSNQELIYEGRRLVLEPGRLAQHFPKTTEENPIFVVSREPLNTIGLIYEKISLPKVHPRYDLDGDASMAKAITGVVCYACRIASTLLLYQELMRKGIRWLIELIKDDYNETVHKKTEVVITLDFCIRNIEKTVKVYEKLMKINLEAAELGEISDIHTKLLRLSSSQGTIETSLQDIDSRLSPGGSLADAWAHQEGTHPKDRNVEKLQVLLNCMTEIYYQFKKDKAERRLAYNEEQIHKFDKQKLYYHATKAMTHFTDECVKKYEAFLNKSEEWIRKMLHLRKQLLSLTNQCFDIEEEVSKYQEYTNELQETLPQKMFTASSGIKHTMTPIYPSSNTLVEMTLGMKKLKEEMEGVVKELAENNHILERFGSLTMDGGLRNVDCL

[4] = target: T3, NUAK family SNF1-like kinase 1 (Homo sapiens) (UniProt O60285); experiment: ARK5(h) Eurofins kinase panel; conditions: Compound concentration 1.0 uM
T3 sequence (whole entry): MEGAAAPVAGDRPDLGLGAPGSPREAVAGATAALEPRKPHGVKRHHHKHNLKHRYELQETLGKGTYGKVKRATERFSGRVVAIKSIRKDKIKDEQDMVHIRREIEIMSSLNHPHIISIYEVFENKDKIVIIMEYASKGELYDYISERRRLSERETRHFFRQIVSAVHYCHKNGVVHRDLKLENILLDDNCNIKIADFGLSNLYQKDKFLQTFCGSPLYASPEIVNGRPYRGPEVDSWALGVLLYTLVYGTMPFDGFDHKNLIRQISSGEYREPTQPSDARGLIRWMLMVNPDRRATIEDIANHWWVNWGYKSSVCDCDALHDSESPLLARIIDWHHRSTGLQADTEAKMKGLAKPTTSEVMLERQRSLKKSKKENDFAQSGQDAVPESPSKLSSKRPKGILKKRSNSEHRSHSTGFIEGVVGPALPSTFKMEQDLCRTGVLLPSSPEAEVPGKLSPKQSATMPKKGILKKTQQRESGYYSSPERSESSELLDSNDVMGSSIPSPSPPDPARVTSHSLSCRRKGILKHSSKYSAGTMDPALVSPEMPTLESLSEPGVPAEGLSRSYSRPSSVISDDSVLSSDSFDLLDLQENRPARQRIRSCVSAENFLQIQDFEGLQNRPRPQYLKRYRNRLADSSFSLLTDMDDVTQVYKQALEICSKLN

[5] = target: CDK18/Cyclin Y (Homo sapiens) (UniProt Q07002+Q8ND76); experiment: CDK18/cyclinY(h) Eurofins kinase panel; format: protein-complex assay; conditions: Compound concentration 1.0 uM
[6] = target: Serine/threonine-protein kinase PRP4 homolog (Homo sapiens) (UniProt Q13523); experiment: PRP4(h) Eurofins kinase panel; conditions: Compound concentration 1.0 uM
[7] = target: Serine/threonine-protein kinase B-raf (Homo sapiens) (UniProt P15056); experiment: B-Raf(h) Eurofins kinase panel; conditions: Compound concentration 1.0 uM
[8] = target: Serine/threonine-protein kinase 26 (Homo sapiens) (UniProt Q9P289); experiment: MST4(h) Eurofins kinase panel; conditions: Compound concentration 1.0 uM
[9] = target: Serine/threonine-protein kinase/endoribonuclease IRE1 (Homo sapiens) (UniProt O75460); experiment: IRE1(h) Eurofins kinase panel; conditions: Compound concentration 1.0 uM
[10] = target: Tyrosine-protein kinase JAK1 (Homo sapiens) (UniProt P23458); experiment: JAK1(h) Eurofins kinase panel; conditions: Compound concentration 1.0 uM
[11] = target: T4, cAMP-dependent protein kinase catalytic subunit PRKX (Homo sapiens) (UniProt P51817); experiment: PrKX(h) Eurofins kinase panel; conditions: Compound concentration 1.0 uM
T4 sequence (whole entry): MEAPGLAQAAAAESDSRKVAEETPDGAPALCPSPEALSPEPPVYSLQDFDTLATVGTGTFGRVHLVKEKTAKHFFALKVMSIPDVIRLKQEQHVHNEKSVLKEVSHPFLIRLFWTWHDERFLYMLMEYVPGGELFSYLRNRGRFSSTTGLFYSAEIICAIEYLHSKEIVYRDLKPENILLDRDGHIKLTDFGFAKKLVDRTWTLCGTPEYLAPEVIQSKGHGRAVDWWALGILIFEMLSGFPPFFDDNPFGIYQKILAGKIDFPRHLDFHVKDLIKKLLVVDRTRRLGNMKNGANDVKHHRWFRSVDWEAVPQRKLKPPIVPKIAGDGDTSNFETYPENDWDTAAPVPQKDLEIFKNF

[12] = target: Histamine H2 receptor (Homo sapiens) (UniProt P25021); conditions: Compound concentration 10.0 uM
Sequence of Histamine H2 receptor (Homo sapiens) (P25021 whole entry): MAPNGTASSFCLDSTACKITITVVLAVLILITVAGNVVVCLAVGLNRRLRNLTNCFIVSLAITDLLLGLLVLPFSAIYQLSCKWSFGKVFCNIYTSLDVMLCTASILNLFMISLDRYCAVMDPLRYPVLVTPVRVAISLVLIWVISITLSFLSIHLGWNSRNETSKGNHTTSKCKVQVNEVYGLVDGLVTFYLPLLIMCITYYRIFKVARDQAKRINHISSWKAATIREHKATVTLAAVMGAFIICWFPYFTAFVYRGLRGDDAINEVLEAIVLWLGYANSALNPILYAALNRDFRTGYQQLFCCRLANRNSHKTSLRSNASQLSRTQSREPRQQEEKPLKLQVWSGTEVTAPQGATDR

Sequence of Serine/threonine-protein kinase B-raf (Homo sapiens) (P15056 whole entry): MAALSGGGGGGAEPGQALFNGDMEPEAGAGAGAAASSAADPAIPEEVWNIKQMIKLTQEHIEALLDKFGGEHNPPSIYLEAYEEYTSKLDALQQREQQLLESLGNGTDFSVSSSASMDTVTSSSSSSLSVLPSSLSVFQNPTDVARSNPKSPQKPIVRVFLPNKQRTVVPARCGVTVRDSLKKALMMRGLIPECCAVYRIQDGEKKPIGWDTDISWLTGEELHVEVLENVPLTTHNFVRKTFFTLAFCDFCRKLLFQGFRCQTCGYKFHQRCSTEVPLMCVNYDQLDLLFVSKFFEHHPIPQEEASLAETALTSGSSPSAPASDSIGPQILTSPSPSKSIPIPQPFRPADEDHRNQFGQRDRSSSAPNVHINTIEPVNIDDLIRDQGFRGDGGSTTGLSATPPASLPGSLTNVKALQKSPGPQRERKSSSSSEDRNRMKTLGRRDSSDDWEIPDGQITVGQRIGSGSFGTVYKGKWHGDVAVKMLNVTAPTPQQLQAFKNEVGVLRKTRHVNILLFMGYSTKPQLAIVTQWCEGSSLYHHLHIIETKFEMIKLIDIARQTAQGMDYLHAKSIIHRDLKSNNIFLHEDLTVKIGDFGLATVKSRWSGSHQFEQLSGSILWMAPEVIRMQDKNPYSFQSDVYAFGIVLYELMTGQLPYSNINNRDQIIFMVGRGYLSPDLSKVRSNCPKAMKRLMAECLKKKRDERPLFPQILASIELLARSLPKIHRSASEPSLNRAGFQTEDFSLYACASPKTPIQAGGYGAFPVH
Sequence of Serine/threonine-protein kinase PRP4 homolog (Homo sapiens) (Q13523 whole entry): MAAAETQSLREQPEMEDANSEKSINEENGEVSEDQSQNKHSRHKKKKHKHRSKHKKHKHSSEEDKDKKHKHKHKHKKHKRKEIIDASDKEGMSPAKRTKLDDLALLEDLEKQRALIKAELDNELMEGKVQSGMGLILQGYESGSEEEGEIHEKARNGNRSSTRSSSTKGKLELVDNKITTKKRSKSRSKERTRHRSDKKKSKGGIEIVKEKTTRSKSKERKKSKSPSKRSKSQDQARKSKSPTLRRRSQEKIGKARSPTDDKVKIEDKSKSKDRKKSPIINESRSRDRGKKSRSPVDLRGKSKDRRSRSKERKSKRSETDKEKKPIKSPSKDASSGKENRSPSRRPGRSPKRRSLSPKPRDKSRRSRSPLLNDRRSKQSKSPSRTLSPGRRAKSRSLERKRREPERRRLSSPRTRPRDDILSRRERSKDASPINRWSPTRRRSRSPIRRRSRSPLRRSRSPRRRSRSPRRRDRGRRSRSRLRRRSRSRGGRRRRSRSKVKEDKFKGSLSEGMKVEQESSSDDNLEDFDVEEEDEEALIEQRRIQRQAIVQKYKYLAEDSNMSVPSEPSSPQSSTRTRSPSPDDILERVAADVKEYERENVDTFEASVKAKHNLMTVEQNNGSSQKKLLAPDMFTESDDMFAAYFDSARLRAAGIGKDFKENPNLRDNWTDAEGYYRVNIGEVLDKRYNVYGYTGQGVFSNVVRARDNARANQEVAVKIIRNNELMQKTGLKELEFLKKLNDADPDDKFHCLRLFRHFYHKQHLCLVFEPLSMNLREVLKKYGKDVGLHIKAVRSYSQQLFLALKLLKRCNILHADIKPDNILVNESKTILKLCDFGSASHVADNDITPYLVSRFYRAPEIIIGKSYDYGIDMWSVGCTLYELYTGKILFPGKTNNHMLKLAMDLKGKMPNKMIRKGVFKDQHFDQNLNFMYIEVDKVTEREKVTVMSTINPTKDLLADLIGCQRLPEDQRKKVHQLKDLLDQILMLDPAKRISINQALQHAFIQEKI
Sequence of Serine/threonine-protein kinase PLK2 (Homo sapiens) (Q9NYY3 whole entry, looked up): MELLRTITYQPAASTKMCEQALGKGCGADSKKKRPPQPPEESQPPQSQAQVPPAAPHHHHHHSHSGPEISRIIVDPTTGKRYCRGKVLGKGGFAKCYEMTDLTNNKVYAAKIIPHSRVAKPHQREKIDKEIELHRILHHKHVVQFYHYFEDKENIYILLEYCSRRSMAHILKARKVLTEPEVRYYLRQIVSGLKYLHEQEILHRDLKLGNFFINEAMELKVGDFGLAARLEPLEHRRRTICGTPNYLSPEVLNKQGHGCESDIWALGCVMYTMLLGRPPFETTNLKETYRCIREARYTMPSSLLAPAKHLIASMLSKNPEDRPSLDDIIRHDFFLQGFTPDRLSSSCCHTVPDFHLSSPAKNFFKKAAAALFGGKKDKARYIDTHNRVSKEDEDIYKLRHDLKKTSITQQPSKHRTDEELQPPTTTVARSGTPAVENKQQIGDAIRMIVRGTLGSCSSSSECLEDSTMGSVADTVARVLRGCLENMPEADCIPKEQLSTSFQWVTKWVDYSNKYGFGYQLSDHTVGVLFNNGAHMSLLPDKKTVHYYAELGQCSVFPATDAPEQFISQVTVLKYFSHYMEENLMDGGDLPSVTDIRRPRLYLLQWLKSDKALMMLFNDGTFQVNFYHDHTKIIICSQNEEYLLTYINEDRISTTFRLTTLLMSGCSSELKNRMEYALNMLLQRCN
Sequence of Tyrosine-protein kinase JAK1 (Homo sapiens) (P23458 whole entry): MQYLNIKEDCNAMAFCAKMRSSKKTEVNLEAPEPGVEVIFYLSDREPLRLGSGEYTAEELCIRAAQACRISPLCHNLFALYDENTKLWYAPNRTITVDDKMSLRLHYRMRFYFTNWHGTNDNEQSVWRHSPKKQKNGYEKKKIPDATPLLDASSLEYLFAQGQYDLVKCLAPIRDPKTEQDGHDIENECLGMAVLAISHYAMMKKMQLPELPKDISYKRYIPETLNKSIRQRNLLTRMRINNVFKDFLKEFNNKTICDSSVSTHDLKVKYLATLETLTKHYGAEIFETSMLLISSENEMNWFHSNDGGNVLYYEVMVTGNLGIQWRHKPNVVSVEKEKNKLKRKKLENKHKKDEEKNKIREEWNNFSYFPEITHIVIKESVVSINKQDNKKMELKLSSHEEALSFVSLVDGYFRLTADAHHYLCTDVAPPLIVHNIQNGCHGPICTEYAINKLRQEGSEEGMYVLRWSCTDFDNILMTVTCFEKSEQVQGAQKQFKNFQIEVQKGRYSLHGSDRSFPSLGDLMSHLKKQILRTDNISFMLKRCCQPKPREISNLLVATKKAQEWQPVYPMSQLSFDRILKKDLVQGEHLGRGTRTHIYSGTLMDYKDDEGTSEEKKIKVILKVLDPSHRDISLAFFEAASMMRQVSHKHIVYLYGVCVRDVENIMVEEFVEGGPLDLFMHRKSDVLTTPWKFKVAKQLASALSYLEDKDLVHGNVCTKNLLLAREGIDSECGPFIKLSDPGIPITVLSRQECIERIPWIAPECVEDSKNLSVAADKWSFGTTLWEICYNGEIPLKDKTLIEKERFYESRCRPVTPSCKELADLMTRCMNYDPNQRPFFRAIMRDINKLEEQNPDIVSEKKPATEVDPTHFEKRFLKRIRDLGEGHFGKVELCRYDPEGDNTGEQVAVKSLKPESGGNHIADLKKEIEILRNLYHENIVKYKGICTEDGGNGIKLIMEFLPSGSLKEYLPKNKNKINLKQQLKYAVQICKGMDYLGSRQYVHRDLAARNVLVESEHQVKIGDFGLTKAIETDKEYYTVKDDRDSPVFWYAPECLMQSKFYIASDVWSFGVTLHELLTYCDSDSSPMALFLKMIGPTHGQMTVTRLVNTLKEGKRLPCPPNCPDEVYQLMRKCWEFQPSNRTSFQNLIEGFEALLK
Sequence of Serine/threonine-protein kinase 26 (Homo sapiens) (Q9P289 2-416 limits assumed): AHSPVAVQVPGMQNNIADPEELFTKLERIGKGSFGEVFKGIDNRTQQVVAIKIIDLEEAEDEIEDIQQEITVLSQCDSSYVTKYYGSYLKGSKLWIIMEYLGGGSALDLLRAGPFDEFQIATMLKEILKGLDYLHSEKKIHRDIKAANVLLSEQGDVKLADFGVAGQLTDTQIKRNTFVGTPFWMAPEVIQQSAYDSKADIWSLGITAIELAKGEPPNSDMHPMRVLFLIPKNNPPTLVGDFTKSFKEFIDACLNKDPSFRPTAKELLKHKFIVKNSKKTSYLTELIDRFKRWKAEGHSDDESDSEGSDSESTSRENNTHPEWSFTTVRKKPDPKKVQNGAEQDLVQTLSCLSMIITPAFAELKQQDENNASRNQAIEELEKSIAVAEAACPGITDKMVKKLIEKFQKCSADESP

CCc1ccccc1C(=O)Nc1n[nH]c2c(C)c(F)c(C3C(C#N)=C(C)N(C)C(C)=C3C#N)cc12 [BAY-3827]
inactive: % residual kinase activity [1] 34% | % residual kinase activity [2] 100% | % residual kinase activity [3] 106% | % residual kinase activity [4] 21% | % residual kinase activity [5] 106% | % residual kinase activity [6] 96% | % residual kinase activity [7] 99% | % residual kinase activity [8] 84% | % residual kinase activity [9] 104% | % residual kinase activity [10] 98% | % residual kinase activity [11] 94%

CC1=C(C#N)C(c2ccc3c(c2)c(NC(=O)c2ccccc2C)nn3C)C(C#N)=C(C)N1 [BAY-974]
inactive: inhibition [12] 8.7%
